By pIC50 is commonly meant −log10 of the IC50, conventionally taken in molar units.

pIC50: −log10 of the molar value.

PAR4, sequence (Q96RI0 18-385): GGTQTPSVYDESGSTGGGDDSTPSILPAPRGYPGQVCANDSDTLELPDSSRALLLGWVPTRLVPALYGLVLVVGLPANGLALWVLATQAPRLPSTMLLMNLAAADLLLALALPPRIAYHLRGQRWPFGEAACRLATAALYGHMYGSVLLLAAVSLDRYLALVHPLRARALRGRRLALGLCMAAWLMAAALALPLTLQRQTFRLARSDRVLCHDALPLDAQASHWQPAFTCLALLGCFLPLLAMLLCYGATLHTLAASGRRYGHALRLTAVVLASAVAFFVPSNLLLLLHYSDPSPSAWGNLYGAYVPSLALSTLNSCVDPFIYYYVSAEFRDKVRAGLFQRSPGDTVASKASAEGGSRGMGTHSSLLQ

This test concerns the target PAR4 (Homo sapiens (Human), UniProt Q96RI0). Put plainly: FLIPR assay in PAR4-expressing HEK293 cells (PAR4 antagonist activity, calcium mobilization). In kind it is cell-based. As to conditions: FLIPR assay as described in Example A. The text has this:
The FLIPR assay is an exemplary in vitro assay for measuring the activity of the PAR4 antagonists of the present invention. In this assay, intracellular calcium mobilization is induced in PAR4 expressing cells by a PAR4 agonist and calcium mobilization is monitored. See, e.g., Example A.
HEK293 cells stably expressing PAR4 were generated by a standard method of transfection of human […] cDNA expression vector or by RAGE technology from Athersys Inc. (Cleveland, Ohio) and selected based on PAR4 protein expression of mRNA expression. […] These cells express endogenous PAR1 and can elicit calcium signal upon stimulation with PAR1 agonist peptide.
Counter screens for agonist activity and PAR1 antagonist activity were also performed. Briefly, HEK293 EBNA PAR4 clone 20664.1J cells were plated 24 hrs. prior to experiment in 384 well, Poly-D-Lysine coated, black, clear bottom plates (Greiner Bio-One, Monroe, N.C.). Cells were plated at 20,000 cells/well in 20 μl growth medium and incubated at 37° C. with 5% CO2 overnight. At time of assay, media was replaced with 40 μl 1× Hank's Buffered Saline Solution (HBSS) (with 10 mM HEPES) and 20 μl test compound also diluted in 1×HBSS buffer was added at various concentrations and 0.67% DMSO final concentration on the FDSS for agonist measurement. The cells were then incubated for 30 minutes at room temperature followed by addition of 20 μl of agonist peptide for antagonist measurement on the FDSS.
As indicated above, the FLIPR assay, an in vitro assay, measures the PAR4 antagonist activity of compounds tested as described in Example A.
(In general: Calcium assays in cells follow changes in intracellular calcium, usually with a dye or a luminescent sensor.)
In the case of `COc1nn2cc(-c3nc4ccc(C)cc4s3)nc2s1` [Example 197], the pIC50 is 5.98.

Turning to `CSc1nn2cc(-c3nc4c(OCC5CC5)cccc4o3)nc2s1` [Example 175], the pIC50 was 7.38.

With `Fc1cccc2oc(-c3cn4nc(Br)sc4n3)cc12` [Example 276], the pIC50 is 6.92.

Consider `COc1ccc2oc(-c3cn4nc(SC)sc4n3)nc2c1` [Example 141], for which the pIC50 was 7.39.

For the molecule `CSc1nn2cc(-c3nc4cc(OC(F)(F)F)ccc4o3)nc2s1` [Example 139], the pIC50 was 7.09.

With `Cc1cc(C)c2cc(-c3cn4nc(Br)sc4n3)oc2c1` [Example 296], the negative-log IC50 (pIC50) was 6.97.

As to `CSc1nn2cc(-c3cc4c(Cl)cc(Cl)cc4o3)nc2s1` [Example 287], the pIC50 was 8.09.

On to `COc1ccc2cc(-c3cn4nc(C(C)F)sc4n3)oc2c1` (centres unmarked) [Example 293], for which the pIC50 was 8.32.

With `COc1nn2cc(-c3nc4ccccc4o3)nc2s1` [Example 111, 2-(2-Methoxyimidazo[2,1-b][1,3,4]thiadiazol-6-yl)benzo[d]oxazole], the negative-log IC50 (pIC50) is 6.85.

Take `COc1nn2cc(-c3cc4c(O)c(Cc5ccccc5)c(OC)cc4o3)nc2s1` [Example 224, 5-Benzyl-6-methoxy-2-(2-methoxyimidazo[2,1-b][1,3,4]thiadiazol-6-yl)benzofuran-4-ol]: the pIC50 is 7.01.

For `COCOc1ccc2nc(-c3cn4nc(SC)sc4n3)oc2c1` [Example 162], the pIC50 was 6.77.

As to `COc1cc(OCc2cccc(OCc3cccc(OCc4cccc(Cl)c4)c3)c2)c2cc(-c3cn4nc(OC)sc4n3)oc2c1` [Example 375], the pIC50 is 6.59.

With `CCc1cccc2cc(-c3cn4nc(OC)sc4n3)oc12` [Example 92], the pIC50 is 7.89.

As for `Cc1nn2cc(-c3cc4ccccc4o3)nc2s1` [Example 41], the pIC50 was 7.73.

For `CSc1nn2cc(-c3nc4c(OCc5cccnc5)cccc4o3)nc2s1` [Example 154], the pIC50 was 6.24.

With `CSc1nn2cc(-c3nc4ccc(OCc5cccc(C#N)c5)cc4o3)nc2s1` [Example 150], the pIC50 was 6.21.

As for `CCc1nn2cc(-c3nc4ccc(Cl)cc4o3)nc2s1` [Example 40], the pIC50 was 6.91.

`COc1cc(OCc2cccc(OCc3cccc(F)c3F)c2)c2cc(-c3cn4nc(OC)sc4n3)oc2c1` [Example 314]: the pIC50 was 9.14.

Turning to `COc1nn2cc(-c3cc4cc(C)ccc4o3)nc2s1` [Example 95], the pIC50 was 8.16.

Consider `COc1cccc2oc(-c3cn4nc(SC)sc4n3)nc12` [Example 149], for which the pIC50 was 7.87.

On to `COc1nn2cc(-c3cc4ccc(C)c(C)c4o3)nc2s1` [Example 102], for which the pIC50 is 6.27.

Turning to `CCc1nn2cc(-c3nc4cc(F)ccc4o3)nc2s1` [Example 49], the pIC50 was 6.44.

Regarding `CSc1nn2cc(-c3cc4cccc(OC(F)(F)F)c4o3)nc2s1` [Example 70], the pIC50 was 6.40.

Consider `CC(F)(F)c1nn2cc(-c3nc4c(N)cccc4o3)nc2s1` [Example 124, 2-(2-(1,1-Difluoroethyl)imidazo[2,1-b][1,3,4]thiadiazol-6-yl)-4-aminobenzo[d]oxazole], for which the negative-log IC50 (pIC50) was 5.46.

Turning to `COc1cccc2sc(-c3cn4nc(SC)sc4n3)nc12` [Example 6, 4-Methoxy-2-(2-(methylthio)imidazo[2,1-b][1,3,4]thiadiazol-6-yl)benzo[d]thiazole], the pIC50 is 6.21.

Turning to `COc1cc(OC[C@@H]2CCCN2C(=O)OC(C)(C)C)c2cc(-c3cn4nc(OC)sc4n3)oc2c1` [Example 342-343], the pIC50 is 6.60.

Turning to `COc1cc(OCc2cccc(OCc3cc(OC)c(OC)c(OC)c3)c2)c2cc(-c3cn4nc(OC)sc4n3)oc2c1` [Example 380], the pIC50 was 8.95.

Regarding `COc1cc(OCc2cccc(OCc3c(F)ccc(F)c3F)c2)c2cc(-c3cn4nc(OC)sc4n3)oc2c1` [Example 330], the pIC50 is 8.58.

With `COc1cc(OCc2cccc(OCc3ccccc3I)c2)c2cc(-c3cn4nc(OC)sc4n3)oc2c1` [Example 379], the pIC50 is 8.11.

With `COc1ccc2cc(-c3cn4nc(SC)sc4n3)oc2c1` [Example 20], the pIC50 was 8.45.

As to `COc1nn2cc(-c3cc4c(Cl)cccc4o3)nc2s1` [Example 109], the pIC50 was 8.51.

With `CSc1nn2cc(-c3nc4cc(C(C)(C)C)ccc4o3)nc2s1` [Example 132], the negative-log IC50 (pIC50) was 7.06.

As to `C#Cc1cc(OCc2cccc(OCc3ccccc3)c2)c2cc(-c3cn4nc(OC)sc4n3)oc2c1` [Example 418], the pIC50 was 8.03.

As to `Clc1cc(Cl)c2cc(-c3cn4nc(Br)sc4n3)oc2c1` [Example 288], the pIC50 is 7.03.

Turning to `COc1nn2cc(-c3cc4c(OCc5cccc(OCc6ccccc6)c5)cccc4o3)nc2s1` [Example 413, 6-(4-((3-(Benzyloxy)benzyl)oxy)benzofuran-2-yl)-2-methoxyimidazo[2,1-b][1,3,4]thiadiazole], the pIC50 was 8.74.

Take `Fc1ccc2cc(-c3cn4nc(C(F)(F)Cl)sc4n3)oc2c1` [Example 243]: the pIC50 is 6.44.

For the molecule `COc1nn2cc(-c3cc4cc(Cl)c(OC)cc4o3)nc2s1` [Example 201, 2-Methoxy-6-(5-chloro-6-methoxybenzofuran-2-yl)imidazo[2,1-b][1,3,4]thiadiazole], the pIC50 was 8.36.

With `COc1ccc2cc(-c3cn4nc(Br)sc4n3)oc2c1` [Example 260], the pIC50 is 8.35.

Regarding `CCc1nn2cc(-c3nc4ccc(OCC(C)C)cc4o3)nc2s1` [Example 85], the pIC50 is 6.41.

Turning to `CCOC(=O)COc1cccc2cc(-c3cn4nc(CC)sc4n3)oc12` [Example 62], the pIC50 was 6.23.

Turning to `COc1cc(OCc2cccc(OCc3ccccc3OC)c2)c2cc(-c3cn4nc(OC)sc4n3)oc2c1` [Example 309], the pIC50 is 8.91.

With `CSc1nn2cc(-c3cc4ccc(C(=O)NCc5ccccc5)cc4o3)nc2s1` [Example 220, N-Benzyl-2-(2-(methylthio)imidazo[2,1-b][1,3,4]thiadiazol-6-yl)benzofuran-6-carboxamide], the pIC50 was 6.51.

Regarding `COc1cc(OCc2cccc(OCc3cccc(NC(=O)c4ccccc4)c3)c2)c2cc(-c3cn4nc(OC)sc4n3)oc2c1` [Example 397], the pIC50 is 8.64.

With `COc1cc(OCc2cccc(OCc3ccccc3)c2)c2cc(-c3cn4nc(Br)sc4n3)oc2c1` [Example 344], the pIC50 is 8.95.

For `COCOc1cccc2oc(-c3cn4nc(OC)sc4n3)cc12` [Example 217, 2-Methoxy-6-(4-(methoxymethoxy)benzofuran-2-yl)imidazo[2,1-b][1,3,4]thiadiazole], the pIC50 is 8.12.

For `COc1cc(OCc2cccc(OCc3cccnc3C)c2)c2cc(-c3cn4nc(OC)sc4n3)oc2c1` [Example 308], the pIC50 is 6.73.

Take `CCc1nn2cc(-c3nc4ccc(OC(C)C)cc4o3)nc2s1` [Example 87]: the pIC50 is 6.35.

`CCc1nn2cc(-c3nc4ccc(OCC5CC5)cc4o3)nc2s1` [Example 74]: the pIC50 was 6.17.

Regarding `C[C@@H](F)c1nn2cc(-c3cc4c(Cl)cc(Cl)cc4o3)nc2s1` [Example 213A, (R)-6-(4,6-Dichlorobenzofuran-2-yl)-2-(1-fluoroethyl)imidazo[2,1-b][1,3,4]thiadiazole], the pIC50 is 6.48.

Consider `COc1cc(OC(C)C)c2cc(-c3cn4nc(OC)sc4n3)oc2c1` [Example 300], for which the pIC50 was 8.46.

Consider `CSc1nn2cc(-c3nc4c(OC(F)(F)F)cccc4s3)nc2s1` [Example 181, 2-(2-(Methylthio)imidazo[2,1-b][1,3,4]thiadiazol-6-yl)-4-(trifluoromethoxy)benzo[d]thiazole], for which the pIC50 was 6.38.

`COc1cc2oc(-c3cn4nc(C(C)(F)F)sc4n3)cc2cc1Br` [Example 272]: the pIC50 was 7.54.

Take `COc1nn2cc(-c3nc4cc(OC(F)(F)F)ccc4o3)nc2s1` [Example 140]: the pIC50 was 7.16.

Turning to `c1ccc2oc(-c3cn4nc(C5CC5)sc4n3)cc2c1` [Example 63], the pIC50 is 6.70.

As to `CCOc1cc(OC)cc2oc(-c3cn4nc(OC)sc4n3)cc12` [Example 206], the pIC50 was 8.70.

On to `COc1nn2cc(-c3cc4cc(OC(F)(F)F)ccc4o3)nc2s1` [Example 98], for which the pIC50 was 6.73.

`CSc1nn2cc(-c3cc4cc(OCc5ccccc5)ccc4o3)nc2s1` [Example 230]: the pIC50 is 5.64.

Take `CSc1nn2cc(-c3cc4c(OCc5cccc(OCc6ccccc6)c5)cc(OC=O)cc4o3)nc2s1` [Example 425]: the pIC50 was 7.91.

Consider `COc1nn2cc(-c3cc4cccc(C)c4o3)nc2s1` [Example 89], for which the pIC50 is 7.55.

For the molecule `FC(F)(Cl)c1nn2cc(-c3cc4ccccc4o3)nc2s1` [Example 209, 6-(Benzofuran-2-yl)-2-(chlorodifluoromethyl)imidazo[2,1-b][1,3,4]thiadiazole], the negative logarithm of the IC50 (pIC50) is 6.35.

Consider `CSc1nn2cc(-c3nc4cc(F)ccc4o3)nc2s1` [Example 126], for which the pIC50 was 7.98.

In the case of `C[C@H](F)c1nn2cc(-c3cc4c(Cl)cc(Cl)cc4o3)nc2s1` [Example 213B, (S)-6-(4,6-Dichlorobenzofuran-2-yl)-2-(1-fluoroethyl)imidazo[2,1-b][1,3,4]thiadiazole], the pIC50 is 7.99.

The values are drawn from patent publication US9862730B2, “Imidazothiadiazole derivatives as protease activated receptor 4 (PAR4) inhibitors for treating platelet aggregation” (BRISTOL-MYERS SQUIBB COMPANY, priority 2012, dated 2018).
